Laboratory results taken from ChEMBL document CHEMBL4118187, “In vitro activity of salicylamide derivatives against vancomycin-resistant enterococci” (Bioorg Med Chem Lett, 2018).
Values after ≈ are worked out from the molar mass of the structure shown. Active and inactive are the calls of the source. The calls are words filed in the database; no cut-off is given here.

Assays:
Enterococcus faecalis [1] = assay: Antibacterial activity against vancomycin-resistant Enterococcus faecalis 342B assessed as vancomycin concentration causing additive effect after 18 hrs by checkerboard assay; assay type: functional
Enterococcus faecalis [2] = assay: Antibacterial activity against vancomycin-resistant Enterococcus faecalis 368 in presence of vancomycin after 18 hrs by checkerboard assay; assay type: functional
Enterococcus faecalis [3] = assay: Antibacterial activity against vancomycin-resistant Enterococcus faecalis 725B in presence of vancomycin after 18 hrs by checkerboard assay; assay type: functional
Enterococcus faecalis [4] = assay: Antibacterial activity against vancomycin-resistant Enterococcus faecalis 342B assessed as compound concentration causing additive effect after 18 hrs in presence of tetracycline by checkerboard assay; assay type: functional
Enterococcus faecalis [5] = assay: Antibacterial activity against vancomycin-resistant Enterococcus faecalis 342B after 24 hrs; assay type: functional
Enterococcus faecalis [6] = assay: Antibacterial activity against vancomycin-resistant Enterococcus faecalis 342B assessed as compound concentration causing additive effect after 18 hrs in presence of vancomycin by checkerboard assay; assay type: functional
Enterococcus faecalis [7] = assay: Antibacterial activity against vancomycin-resistant Enterococcus faecalis 368 assessed as compound concentration causing additive effect after 18 hrs in presence of tetracycline after 18 hrs by checkerboard assay; assay type: functional
Enterococcus faecalis [8] = assay: Antibacterial activity against vancomycin-resistant Enterococcus faecalis 725B assessed as compound concentration causing additive effect after 18 hrs in presence of ciprofloxacin by checkerboard assay; assay type: functional
Enterococcus faecalis [9] = assay: Antibacterial activity against vancomycin-resistant Enterococcus faecalis 342B assessed as tetracycline concentration causing additive effect after 18 hrs by checkerboard assay; assay type: functional
Enterococcus faecalis [10] = assay: Antibacterial activity against vancomycin-resistant Enterococcus faecalis 725B in presence of tetracycline after 18 hrs by checkerboard assay; assay type: functional
Enterococcus faecalis [11] = assay: Antibacterial activity against vancomycin-resistant Enterococcus faecalis 368 assessed as tetracycline concentration causing additive effect after 18 hrs after 18 hrs by checkerboard assay; assay type: functional
Enterococcus faecalis [12] = assay: Antibacterial activity against vancomycin-resistant Enterococcus faecalis 368 after 24 hrs; assay type: functional; conditions: Enterococcus faecalis, 368, 24 h
Enterococcus faecalis [13] = assay: Antibacterial activity against vancomycin-resistant Enterococcus faecalis 725B in presence of ciprofloxacin after 18 hrs by checkerboard assay; assay type: functional
Enterococcus faecalis [14] = assay: Antibacterial activity against vancomycin-resistant Enterococcus faecalis 725B assessed as ciprofloxacin concentration causing additive effect after 18 hrs by checkerboard assay; assay type: functional
Enterococcus faecalis [15] = assay: Bacteriostatic activity against vancomycin-resistant Enterococcus faecalis 342B up to 24 hrs by time kill assay; assay type: functional, organism-based
Enterococcus faecalis [16] = assay: Antibacterial activity against vancomycin-resistant Enterococcus faecalis 368 assessed as vancomycin concentration causing additive effect after 18 hrs after 18 hrs by checkerboard assay; assay type: functional
Enterococcus faecalis [17] = assay: Antibacterial activity against vancomycin-resistant Enterococcus faecalis 725B after 24 hrs; assay type: functional
Enterococcus faecalis [18] = assay: Antibacterial activity against vancomycin-resistant Enterococcus faecalis 342B in presence of tetracycline after 18 hrs by checkerboard assay; assay type: functional
Enterococcus faecalis [19] = assay: Antibacterial activity against vancomycin-susceptible Enterococcus faecalis ATCC 29212 after 24 hrs; assay type: functional; conditions: ATCC 29212, 24 h
Enterococcus faecalis [20] = assay: Antibacterial activity against vancomycin-resistant Enterococcus faecalis 342B in presence of vancomycin after 18 hrs by checkerboard assay; assay type: functional
Enterococcus faecalis [21] = assay: Antibacterial activity against vancomycin-resistant Enterococcus faecalis 368 assessed as compound concentration causing additive effect after 18 hrs in presence of vancomycin after 18 hrs by checkerboard assay; assay type: functional
Enterococcus faecalis [22] = assay: Bacteriostatic activity against vancomycin-resistant Enterococcus faecalis 725B up to 24 hrs by time kill assay; assay type: functional, organism-based
Enterococcus faecalis [23] = assay: Antibacterial activity against vancomycin-resistant Enterococcus faecalis 368 in presence of tetracycline after 18 hrs by checkerboard assay; assay type: functional

For `O=C(Nc1ccc([N+](=O)[O-])cc1)c1cc(Cl)ccc1O`, which Activity (Enterococcus faecalis [1]) is on record?
Its Activity is 64 µg/mL.

What about the FIC (Enterococcus faecalis [2]) of the same compound?
The FIC was 0.625 - 1.25.

And the FIC (Enterococcus faecalis [3])?
Its FIC is 1.063 - 1.5.

And the Activity (Enterococcus faecalis [4])?
The Activity was 0.5 µg/mL.

What about the MBC (Enterococcus faecalis [5]) of the same compound?
Its MBC is 6.83 µM (≈ 2 µg/mL).

What about the MIC (Enterococcus faecalis [5]) of the same compound?
The MIC was 1.71 µM (≈ 0.5 µg/mL).

And the Activity (Enterococcus faecalis [6])?
The Activity was 0.063 µg/mL.

And the Activity (Enterococcus faecalis [7])?
The Activity was 1 µg/mL.

And the Activity (Enterococcus faecalis [8])?
The Activity was 0.008 µg/mL.

What about the Activity (Enterococcus faecalis [9]) of the same compound?
Its Activity is 16 µg/mL.

And the FIC (Enterococcus faecalis [10])?
Its FIC is 1.032 - 2.125.

And the Activity (Enterococcus faecalis [11])?
Its Activity is 16 µg/mL.

What about the MBC (Enterococcus faecalis [12]) of the same compound?
Its MBC is > 874 µM.

What about the MIC (Enterococcus faecalis [12]) of the same compound?
The MIC was 13.7 µM (≈ 4 µg/mL).

What about the FIC (Enterococcus faecalis [13]) of the same compound?
The FIC was 1 - 1.25.

And the Activity (Enterococcus faecalis [14])?
Its Activity is 64 µg/mL.

What about the Activity (Enterococcus faecalis [15]) of the same compound?
Its Activity is “Active”.

What about the Activity (Enterococcus faecalis [16]) of the same compound?
The Activity was 512 µg/mL.

And the MBC (Enterococcus faecalis [17])?
Its MBC is 6.83 µM (≈ 2 µg/mL).

What about the MIC (Enterococcus faecalis [17]) of the same compound?
The MIC was 3.42 µM (≈ 1 µg/mL).

What about the FIC (Enterococcus faecalis [18]) of the same compound?
The FIC was 0.75 - 1.25.

And the MBC (Enterococcus faecalis [19])?
The MBC was 6.83 µM (≈ 2 µg/mL).

What about the MIC (Enterococcus faecalis [19]) of the same compound?
Its MIC is 0.85 µM (≈ 0.249 µg/mL).

And the FIC (Enterococcus faecalis [20])?
The FIC was 1 - 2.25.

And the Activity (Enterococcus faecalis [21])?
Its Activity is 0.063 µg/mL.

And the Activity (Enterococcus faecalis [22])?
Its Activity is “Active”.

What about the FIC (Enterococcus faecalis [23]) of the same compound?
Its FIC is 0.75 - 1.25.
